According to article PMC6482174, “Fragment-based screening identifies inhibitors of ATPase activity and of hexamer formation of Cagα from the Helicobacter pylori type IV secretion system” (Scientific Reports, 2019):

Assays:
Cagα ATPase activity = Cagα ATPase activity (Helicobacter pylori, UniProt G5EB02); assay: Malachite green ATPase activity assay; assay type: biochemical; details: for Mechanism of inhibition: inhibitor 0 to 500 μM, ATP varied, only Vmax affected, Km constant
Method: We used a Malachite green assay to measure the release of inorganic phosphate from ATP to assess whether the 16 binding fragments impact the enzymatic activity of Cagα. […] Therefore, the mechanism of inhibition by molecules 1G2 and 1G2#4 is non-competitive.
The ATPase activity was quantified using a malachite green binding assay. The 100 μL reaction mixtures contained 25 mM HEPES (pH 7.5), 100 mM NaCl, 60 nM of enzyme and 200 µM of MgCl2 with different concentrations of ATP (0 µM–320 µM) to determine kinetic parameters. The reaction mixtures were incubated for 30 min at 30 °C and then 40 μL of malachite green assay mixture was added. The formation of the blue phosphomolybdate-malachite green complex was in linear relation to the amount of released inorganic phosphate and measured at 610 nm. To study the mechanism of inhibition, the concentrations of inhibitors were varied between 0 and 500 μM with different concentrations of ATP (0–40 μM). Initial velocity data were fit using nonlinear regression analysis to each of the equations describing partial and full models of competitive, uncompetitive, non-competitive, and mixed inhibition using the Enzyme Kinetics Module of SigmaPlot (SigmaPlot version 11.0 software). On the basis of the analysis of fits through “goodness-of-fit” statistics, the full non-competitive inhibition model was determined with the equation ν = Vmax/[(1 + [I]/Ki) × (1 + Km/[S])], where [S] = [ATP], [I] = [1G2].
IC50 values were determined by incubating different concentrations of molecules (10–1,000 µM; from stocks of 200 mM) with enzyme in 25 mM HEPES (pH 7.5) and 100 mM NaCl. Mixtures were incubated with inhibitors for 15 min, followed by addition of ATP and incubation for 30 min at 37 °C. The reactions were stopped by addition of 40 µl malachite green solution and the inorganic phosphate released was determined at 610 nm. Data were plotted as 1/rate versus inhibitor concentration for each substrate concentration and a linear fit was calculated by non-linear regression using SigmaPlot (version 11.0).

[1] = test system: IL-8 production by AGS cells upon co-cultivation with H. pylori; assay: IL-8 induction in AGS cells co-cultivated with H. pylori (ELISA); assay type: cell-based, Helicobacter pylori; details: 200 μM
Excerpt: (§1) Finally, we assessed whether molecule 1G2 or its derivates impact the functionality of the T4SS in vivo. To this effect, we tested their impact on the interaction of H. pylori strain 26695 with gastric adenocarcinoma (AGS) cells. […] We then tested the effects of these molecules in two commonly used assays for downstream effects of T4SS function: IL-8 production and CagA phosphorylation. […] In contrast, derivates 1G2#1 to #6 have no effect on IL-8 production. Similarly, none of the molecules reduces the tyrosine phosphorylation of the T4SS-translocated virulence factor CagA, which is generally used as an alternative assay to measure T4SS function (Supplementary Fig. 8). […] This observation may be due to partial inhibition of T4SS function by 1G2 that is more readily quantifiable in the IL-8 production assay as compared to the CagA phosphorylation assay.
Figure 6 Molecule 1G2 decreases IL-8 induction in co-cultivated AGS cells. H. pylori 26695 without and after pre-incubation with 1G2 and its derivatives for […]. AGS cells were then co-cultured with H. pylori overnight and IL-8 induction was measured by ELISA. The induction of IL-8 by the wild type was calculated as 100% (WT), induction of IL-8 by the ΔcagV strain was used as negative control. The data represent the results from three experiments. […]

[2] = test system: tyrosine phosphorylation of the T4SS-translocated virulence factor CagA; assay: CagA transfer into AGS cells / CagA tyrosine phosphorylation (western blot); assay type: cell-based, Helicobacter pylori; details: H. pylori pre-incubated with molecule, AGS infection
Excerpt: as §1
Preceding the infection, an overnight culture of H. pylori was pre-incubated with 1G2 and its derivates for 30 min. AGS cells at 6 × 10^5 cells/well density in 6-well plates were infected with the pre-treated cultures of H. pylori for 3–6 h at a multiplicity of infection of 100:1. […]
Western blot analyses were reproduced four times and intensities of the CagAPY signals were quantified (Image Lab TM Software) and normalized using anti -b-actin signals. […]

H. pylori 26695 = assay: H. pylori growth on solid agar media (Whatman paper disks); assay type: cell-based, Helicobacter pylori; details: 72 h
Excerpt: as §1
AGS cell viability was monitored using Cell Proliferation Reagent WST-1 (Sigma). To evaluate the sensitivity of H. pylori to 1G2 and its derivates, freshly harvested bacteria were spread on a 150-mm agar plate. Increasing concentrations of compounds (50–500 μM) were spotted onto Whatman paper disks and growth was observed after 72 h incubation at 37 °C under microaerophilic conditions and compared to antibiotics (50–250 μM).
Supplementary Figure 6. Effects of molecule 1G2 and its derivates on H. pylori growth. […]

Chain of Cagα ATPase activity (G5EB02 entry or part of it): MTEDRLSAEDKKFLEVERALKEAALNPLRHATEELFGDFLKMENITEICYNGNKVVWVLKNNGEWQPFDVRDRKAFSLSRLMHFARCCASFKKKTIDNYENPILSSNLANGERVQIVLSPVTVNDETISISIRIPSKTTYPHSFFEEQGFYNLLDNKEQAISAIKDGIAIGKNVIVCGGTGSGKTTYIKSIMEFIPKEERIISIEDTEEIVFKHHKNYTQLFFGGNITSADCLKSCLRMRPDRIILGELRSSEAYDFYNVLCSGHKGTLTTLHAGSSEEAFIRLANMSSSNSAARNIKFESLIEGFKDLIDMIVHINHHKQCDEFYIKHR

Structure (SMILES)	IC50 (Cagα ATPase activity)	Mechanism of inhibition (Cagα ATPase activity)	Effect on IL-8 production (in words) [1]	Effect on tyrosine phosphorylation of CagA [2]	Effect on growth of H. pylori on solid agar media (H. pylori 26695; concentrations up to 500 μM)	IL-8 production, of the control ([1]; wild type without molecule = 100%)	Effect on growth of H. pylori (control antibiotic) (H. pylori 26695; several concentrations on Whatman paper disks)
Cc1ccc(Oc2ccc(C(=O)O)cc2)nc1 [1G2#4]	81.9 µM	non-competitive	no effect	no effect	–	–	–
O=C(O)c1ccc(Oc2ccccn2)cc1 [1G2]	196 µM	non-competitive	–	did not observe an effect	no negative effect	about 50%	–
O=C(N[C@H](CO)[C@H](O)c1ccc([N+](=O)[O-])cc1)C(Cl)Cl [chloramphenicol, reference compound]	–	–	–	–	–	–	inhibition of growth
